Like-named read-outs stand apart in the source and are kept apart here. Where no end group is shown, it is not given here.
Columns and labels:
S. maltophilia [1] = assay: Time-kill assay in cystic fibrosis patient sputum, S. maltophilia; format: cell-based, Stenotrophomonas maltophilia
From the text: (§1) Sputum from 5 cystic fibrosis patients was pooled. The resulting mixture was not filtered, as it was very dense and not amenable to sterilization by filtration. Sputum is known to be a complex mixture of DNA, carbohydrates, and lipids ([…], 2016). As used herein, the term “sputum” refers to the mucus present in the respiratory tract of an animal, such as a human. Sputum may increase in thickness due to the irritation or infection, including bacterial infection, and in some instances, may be expelled by the animal while coughing. In certain instances, cystic fibrosis may be characterized by the presence of a thick, sticky mucus or sputum present in the lungs of cystic fibrosis patients. The activity of GN370, AM1, AM2, AM3, and meropenem was determined in the sputum using a time-kill assay format as disclosed in Zhang et al., Antimicrobial peptide therapeutics for cystic fibrosis, Antimicrobial Agents Chemother. 2005; 49(7):2921-2927. […] Untreated controls were included in addition to pretreatment plating (t=0) for a baseline CFU determination. Activity was also determined in the absence of sputum for comparison to activity observed in the presence of sputum.

A. xylosoxidans [2] = assay: Time-kill assay in cystic fibrosis patient sputum, A. xylosoxidans; format: cell-based, Achromobacter xylosoxidans
From the text: as §1

B. gladioli = format: cell-based, Burkholderia gladioli; conditions: B. gladioli (15); 2-hour treatment
Description: (§2) The MBEC (after 2-hour treatments) was determined as described in Jones and Wozniak, PsI Produced by Mucoid Pseudomonas aeruginosa Contributes to the Establishment of Biofilms and Immune Evasion, Am. Soc. Microbiol. 2017, 8(3):e00864-17. Meropenem and tobramycin were included as controls and were both poorly active, with MBEC90 values of >256 μg/mL (data not shown).

S. maltophilia [3] = tested on: S. maltophilia
A. xylosoxidans [4] = format: cell-based, Achromobacter xylosoxidans
Description: MIC values were determined using a modification of the standard broth microdilution reference method defined by the Clinical and Laboratory Standards Institute (CLSI), CLSL. 2015. Methods for Dilution Antimicrobial Susceptibility Tests for Bacteria That Grow Aerobically; Approved Standard-10th Edition. Clinical and Laboratory Standards Institute, Wayne, PA. The modification was based on the replacement of Mueller Hinton Broth with either CAA media (with and without NaCl) or CAA supplemented with 2.5% human serum. MIC is the minimum concentration of peptide sufficient to suppress at least 80% of the bacterial growth compared to control.
The MICs for were determined as described below using the broth microdilution method for meropenem, GN370, AM1, AM2, and AM3. The results are shown below in Tables 8-12.
The activity of GN370 and AM1 was evaluated against various bacterial isolates, including mucoid and α-hemolytic isolates of P. aeruginosa, MDR isolates, and carbapenem-resistant isolates.

M. scrofulaceum = assay: MIC against M. scrofulaceum; format: cell-based, Mycobacterium scrofulaceum; conditions: M. scrofulaceum (ATCC 19981); CAAT media
S. maltophilia [5] = tested on: S. maltophilia; remark: listed apart in the source
Description: (§3) Biofilms are then washed and treated with e.g., a 2-fold dilution series of the lysin in TSBg at e.g., 37° C. for 24 hours. After treatment, wells are washed, air-dried at e.g., 37° C. and stained with e.g., 0.05% crystal violet for 10 minutes.
(§4) The antibiofilm activity of GN370, AM1, AM2, and AM3 was evaluated against various Gram-negative bacteria prevalent in cystic fibrosis patients, including P. aeruginosa, S. maltophilia, and A. xylosoxidans.
(§5) The MBEC (after 2-hour treatments) was determined as described in Jones and Wozniak, PsI Produced by Mucoid Pseudomonas aeruginosa Contributes to the Establishment of Biofilms and Immune Evasion, Am. […] Microbiol.

A. xylosoxidans [6] = tested on: A. xylosoxidans
Description: as §3, §4, §5

B. multivorans = tested on: B. multivorans
Description: as §3, §4, §5

P. apista = format: cell-based, Pandoraea apista
Description: as §2

M. fortuitum = assay: MIC against M. fortuitum; format: cell-based, Mycobacterium fortuitum; conditions: M. fortuitum (ATCC 6841); CAAT media
B. cenocepacia = format: cell-based, Burkholderia cenocepacia
Description: as §2

M. intracellulare = assay: MIC against M. intracellulare; format: cell-based, Mycobacterium intracellulare; conditions: M. intracellulare (ATCC 13950); CAAT media
Mycobacterium species = format: cell-based
[7] = all tested isolates, Tables 8-12
[8] = α-hemolytic P. aeruginosa isolates (n = 13)

**Q.** For “MRLKMARRRYRLPRRRSRRLFSRTALRMHPRNRLRRIMRGGIRF [AM1]”, which “effect of sputum on antibacterial activity” value (S. maltophilia [1]; 10% CF sputum vs no sputum) is on record?
**A.** none of GN370, AM1, AM2, and AM3 was inhibited

**Q.** What about the “Log10 CFU/mL of sputum” value (S. maltophilia [1]; absence of sputum, 1 hr) of the same sequence?
**A.** 2.3 Log10 CFU/mL of sputum

**Q.** And the “Log10 CFU/mL of sputum” value (S. maltophilia [1]; absence of sputum, 3 hr)?
**A.** 2.3 Log10 CFU/mL of sputum

**Q.** What about the “Log10 CFU/mL of sputum” value (S. maltophilia [1]; absence of sputum, 24 hr) of the same sequence?
**A.** 2.3 Log10 CFU/mL of sputum

**Q.** What about the “Log10 CFU/mL of sputum” value (S. maltophilia [1]; presence of 10% sputum, 1 hr) of the same sequence?
**A.** 2.3 Log10 CFU/mL of sputum

**Q.** What about the “Log10 CFU/mL of sputum” value (S. maltophilia [1]; presence of 10% sputum, 3 hr) of the same sequence?
**A.** 2.3 Log10 CFU/mL of sputum

**Q.** And the “Log10 CFU/mL of sputum” value (S. maltophilia [1]; presence of 10% sputum, 24 hr)?
**A.** 2.3 Log10 CFU/mL of sputum

**Q.** And the “killing by 1 hour, maintained at 24 hours” value (S. maltophilia [1]; time-kill)?
**A.** complete killing

**Q.** What about the “effect of sputum on antibacterial activity” value (A. xylosoxidans [2]; 10% CF sputum vs no sputum) of the same sequence?
**A.** none of GN370, AM1, AM2, and AM3 was inhibited

**Q.** What about the “Log10 CFU/mL of sputum” value (A. xylosoxidans [2]; absence of sputum, 1 hr) of the same sequence?
**A.** 2.3 Log10 CFU/mL of sputum

**Q.** And the “Log10 CFU/mL of sputum” value (A. xylosoxidans [2]; absence of sputum, 3 hr)?
**A.** 2.3 Log10 CFU/mL of sputum

**Q.** What about the “Log10 CFU/mL of sputum” value (A. xylosoxidans [2]; absence of sputum, 24 hr) of the same sequence?
**A.** 2.3 Log10 CFU/mL of sputum

**Q.** What about the “Log10 CFU/mL of sputum” value (A. xylosoxidans [2]; presence of 10% sputum, 1 hr) of the same sequence?
**A.** 2.3 Log10 CFU/mL of sputum

**Q.** What about the “Log10 CFU/mL of sputum” value (A. xylosoxidans [2]; presence of 10% sputum, 3 hr) of the same sequence?
**A.** 2.3 Log10 CFU/mL of sputum

**Q.** What about the “Log10 CFU/mL of sputum” value (A. xylosoxidans [2]; presence of 10% sputum, 24 hr) of the same sequence?
**A.** 2.3 Log10 CFU/mL of sputum

**Q.** What about the “killing by 1 hour, maintained at 24 hours” value (A. xylosoxidans [2]; time-kill) of the same sequence?
**A.** complete killing

**Q.** What about the MBEC50 (B. gladioli) of the same sequence?
**A.** 4 µg/mL

**Q.** What about the MBEC90 (B. gladioli) of the same sequence?
**A.** 16 µg/mL

**Q.** And the “MBEC Range” value (B. gladioli)?
**A.** 0.5 to 32 µg/mL

**Q.** And the “AM1 MIC50” value (S. maltophilia [3])?
**A.** 0.5 µg/mL

**Q.** And the “AM1 MIC90” value (S. maltophilia [3])?
**A.** 1 µg/mL

**Q.** What about the MIC50 (S. maltophilia [3]) of the same sequence?
**A.** 0.5 µg/mL

**Q.** And the MIC90 (S. maltophilia [3])?
**A.** 1 µg/mL

**Q.** What about the “MIC Range” value (S. maltophilia [3]; MDR S. maltophilia isolates (n = 8), in µg/mL) of the same sequence?
**A.** 0.5-1

**Q.** What about the MIC50 (S. maltophilia [3]; S. maltophilia isolates) of the same sequence?
**A.** 0.5 µg/mL

**Q.** What about the MIC90 (S. maltophilia [3]; S. maltophilia isolates) of the same sequence?
**A.** 1 µg/mL

**Q.** What about the “MIC Range” value (S. maltophilia [3]; S. maltophilia isolates, in µg/mL) of the same sequence?
**A.** 0.016-1

**Q.** What about the MIC (S. maltophilia [3]; S. maltophilia test organism of the sputum time-kill assay) of the same sequence?
**A.** AM1 (MIC = 0.5)

**Q.** What about the “activity (MIC) against S. maltophilia isolates” value (S. maltophilia [3]; [7]) of the same sequence?
**A.** highly active

**Q.** What about the “AM1 MIC Range” value (S. maltophilia [3]; carbapenem-resistant S. maltophilia isolates (n = 23), in µg/mL) of the same sequence?
**A.** 0.016-1

**Q.** And the “AM1 MIC50” value (P. aeruginosa)?
**A.** 0.25 µg/mL

**Q.** And the “AM1 MIC90” value (P. aeruginosa)?
**A.** 0.5 µg/mL

**Q.** And the MIC50 (P. aeruginosa)?
**A.** 0.25 µg/mL

**Q.** What about the MIC90 (P. aeruginosa) of the same sequence?
**A.** 0.5 µg/mL

**Q.** What about the “MIC Range” value (P. aeruginosa; MDR P. aeruginosa isolates (n = 13), in µg/mL) of the same sequence?
**A.** 0.016-0.5

**Q.** What about the MIC50 (P. aeruginosa; P. aeruginosa isolates) of the same sequence?
**A.** 0.25 µg/mL

**Q.** What about the MIC90 (P. aeruginosa; P. aeruginosa isolates) of the same sequence?
**A.** 0.5 µg/mL

**Q.** And the MIC (P. aeruginosa; P. aeruginosa test organism of the sputum time-kill assay)?
**A.** (MIC = 1)

**Q.** What about the “activity (MIC) against P. aeruginosa isolates” value (P. aeruginosa; [7]) of the same sequence?
**A.** highly active

**Q.** And the “AM1 MIC Range” value (P. aeruginosa; carbapenem-resistant P. aeruginosa isolates (n = 17))?
**A.** 0.016-0.5

**Q.** What about the MIC50 (P. aeruginosa; [8]) of the same sequence?
**A.** 0.25 µg/mL

**Q.** What about the MIC90 (P. aeruginosa; [8]) of the same sequence?
**A.** 0.5 µg/mL

**Q.** And the “AM1 MIC50” value (A. xylosoxidans [4])?
**A.** 0.5 µg/mL

**Q.** What about the “AM1 MIC90” value (A. xylosoxidans [4]) of the same sequence?
**A.** 1 µg/mL

**Q.** And the MIC50 (A. xylosoxidans [4])?
**A.** 1 µg/mL

**Q.** And the MIC90 (A. xylosoxidans [4])?
**A.** 4 µg/mL

**Q.** What about the MIC50 (A. xylosoxidans [4]; A. xylosoxidans isolates) of the same sequence?
**A.** 0.5 µg/mL

**Q.** What about the MIC90 (A. xylosoxidans [4]; A. xylosoxidans isolates) of the same sequence?
**A.** 2 µg/mL

**Q.** And the “MIC Range” value (A. xylosoxidans [4]; A. xylosoxidans isolates, in µg/mL)?
**A.** 0.016-4

**Q.** What about the MIC (A. xylosoxidans [4]; A. xylosoxidans test organism of the sputum time-kill assay) of the same sequence?
**A.** AM1 (MIC = 0.5)

**Q.** And the “MIC Range” value (A. xylosoxidans [4]; MDR A. xylosoxidans isolates (n = 14), in µg/mL)?
**A.** 0.5-4

**Q.** And the “AM1 MIC Range” value (A. xylosoxidans [4]; carbapenem-resistant A. xylosoxidans isolates (n = 7), in µg/mL)?
**A.** 0.06225-1

**Q.** What about the MIC (M. scrofulaceum) of the same sequence?
**A.** 0.5 µg/mL

**Q.** What about the MBEC50 (S. maltophilia [5]) of the same sequence?
**A.** 1 µg/mL

**Q.** What about the MBEC90 (S. maltophilia [5]) of the same sequence?
**A.** 2 µg/mL

**Q.** And the “MBEC Range” value (S. maltophilia [5])?
**A.** 0.25 to 2 µg/mL

**Q.** What about the “antibiofilm activity (MBEC) against S. maltophilia” value (S. maltophilia [5]; 2-hour treatments) of the same sequence?
**A.** highly active

**Q.** And the MBEC50 (A. xylosoxidans [6])?
**A.** 0.5 µg/mL

**Q.** And the MBEC90 (A. xylosoxidans [6])?
**A.** 1 µg/mL

**Q.** What about the “MBEC Range” value (A. xylosoxidans [6]) of the same sequence?
**A.** 0.125 to 2 µg/mL

**Q.** And the “antibiofilm activity (MBEC) against A. xylosoxidans” value (A. xylosoxidans [6]; 2-hour treatments)?
**A.** highly active

**Q.** And the MBEC50 (B. multivorans)?
**A.** 2 µg/mL

**Q.** And the MBEC90 (B. multivorans)?
**A.** 4 µg/mL

**Q.** And the “MBEC Range” value (B. multivorans)?
**A.** 2 to 4 µg/mL

**Q.** What about the “antibiofilm activity (MBEC) against B. multivorans” value (B. multivorans; 2-hour treatments) of the same sequence?
**A.** highly active

**Q.** And the MBEC50 (P. apista)?
**A.** 8 µg/mL

**Q.** What about the MBEC90 (P. apista) of the same sequence?
**A.** 16 µg/mL

**Q.** What about the MIC (M. fortuitum) of the same sequence?
**A.** 2 µg/mL

**Q.** What about the MBEC50 (B. cenocepacia) of the same sequence?
**A.** 16 µg/mL

**Q.** And the MBEC90 (B. cenocepacia)?
**A.** 32 µg/mL

**Q.** And the “MBEC Range” value (B. cenocepacia)?
**A.** 2 to 32 µg/mL

**Q.** What about the MIC (M. intracellulare) of the same sequence?
**A.** 0.5 µg/mL

**Q.** And the “activity (MIC) against Mycobacterium species” value (Mycobacterium species)?
**A.** highest activity
